Measured values as given in ChEMBL document CHEMBL5543078, “Peptidomimetics as potent dual SARS-CoV-2 cathepsin-L and main protease inhibitors: In silico design, synthesis and pharmacological characterization” (Eur J Med Chem, 2024).
pEC50: −log10 of the molar value. Non-standard residues stand in square brackets, D forms with d. Residues, ends and D or L forms follow the SMILES beside them. *: point of attachment. AllylGly = C=CC[C@H](N)C(=O)O; Acryloyl = C=CC(=O)*; NHBn = c1ccc(CN*)cc1; ClAc = O=C(CCl)*

System: SARS-CoV-2
Assay: microbe, parasite or virus in culture
Details: Severe acute respiratory syndrome coronavirus 2, RG-2674 (Beta), Vero

Structure (SMILES)	pEC50
C=CC[C@H](NC(=O)CCl)C(=O)N[C@@H](CC=C)C(=O)N[C@H](CNCc1ccccc1)Cc1c[nH]c2ccccc12	5.67
CC(C)C[C@@H](NC(=O)CCl)C(=O)N[C@@H](Cc1c[nH]c2ccccc12)C(=O)NCc1ccccc1	7.15
O=C(CS)N[C@@H](Cc1ccccc1)C(=O)N[C@@H](Cc1c[nH]c2ccccc12)C(=O)NCc1ccccc1	< 4.00
C=CC[C@H](NC(=O)CCl)C(=O)N[C@@H](Cc1c[nH]c2ccccc12)C(=O)NCCN1CCOCC1	5.23
CC(C)C[C@H](NC(=O)CCl)C(=O)N[C@H](Cc1c[nH]c2ccccc12)C(=O)NCc1ccccc1	5.05
CC(C)C[C@@H](C(=O)NCC12CC3CC(CC(C3)C1)C2)N(Cc1ccccc1)C(=O)CCl	< 5.40
CC(C)C[C@H](NC(=O)CCl)C(=O)N[C@@H](Cc1c[nH]c2ccccc12)C(=O)NCc1ccccc1	6.36
C=CC(=O)N[C@@H](CC(C)C)C(=O)N[C@@H](Cc1c[nH]c2ccccc12)C(=O)NCc1ccccc1	< 4.00
C=CC(=O)N[C@@H](Cc1ccccc1)C(=O)N[C@@H](Cc1c[nH]c2ccccc12)C(=O)NCc1ccccc1 (Acryloyl-Phe-Trp-NHBn)	< 4.70
O=C(CCl)NCC(=O)N[C@@H](Cc1c[nH]c2ccccc12)C(=O)NCc1ccccc1 (ClAc-Gly-Trp-NHBn)	7.15
CC(C)C[C@H](NC(=O)CCl)C(=O)N[C@@H](Cc1ccccc1)C(=O)N[C@@H](Cc1c[nH]c2ccccc12)C(=O)NCc1ccccc1 (ClAc-Leu-Phe-Trp-NHBn)	< 4.70
COC(=O)[C@H](CCC(N)=O)NC(=O)[C@H](Cc1c[nH]c2ccccc12)NC(=O)[C@H](CC(C)C)NC(=O)CCl (ClAc-Leu-Trp-Gln-OMe)	< 4.00
O=C(CCl)N[C@@H](Cc1ccccc1)C(=O)N[C@@H](Cc1c[nH]c2ccccc12)C(=O)NCc1ccccc1 (ClAc-Phe-Trp-NHBn)	7.15
CC(C)C[C@H](NC(=O)[C@H](Cc1c[nH]c2ccccc12)NC(=O)CCl)C(=O)NCc1ccccc1 (ClAc-Trp-Leu-NHBn)	6.59
COC(=O)[C@H](CC(C)C)NC(=O)[C@H](Cc1c[nH]c2ccccc12)NC(=O)CCl (ClAc-Trp-Leu-OMe)	< 5.40
O=C(CCl)N[C@@H](Cc1ccc(O)cc1)C(=O)N[C@@H](Cc1c[nH]c2ccccc12)C(=O)NCc1ccccc1 (ClAc-Tyr-Trp-NHBn)	5.48
C=CC[C@H](NC(=O)CCl)C(=O)N[C@@H](Cc1c[nH]c2ccccc12)C(=O)NCc1ccccc1 (ClAc-[AllylGly]-Trp-NHBn)	6.34
CC(C)C(=O)OC[C@H]1O[C@@H](n2ccc(NO)nc2=O)[C@H](O)[C@@H]1O [MOLNUPIRAVIR]	5.55
CCC(CC)COC(=O)[C@H](C)N[P@](=O)(OC[C@H]1O[C@@](C#N)(c2ccc3c(N)ncnn23)[C@H](O)[C@@H]1O)Oc1ccccc1 [REMDESIVIR]	5.62
